In assay [1] the target is T1, eeAChE (AChE from electric eel) (Electrophorus electricus, UniProt O42275).
T1 construct: AChE (E.C. 3.1.1.7, Type V-S, lyophilized powder, from electric eel, 1000 unit); purchased Sigma-Aldrich Type V-S; host or cells: electric eel
As to the kind of experiment: biochemical. As to conditions: incubation time 25 min; mean ± SD, at least three independent experiments. The protocol: (§1) AChE (E.C. 3.1.1.7, Type V-S, lyophilized powder, from electric eel, 1000 unit), BChE (E.C. 3.1.1.8, from equine serum), ATCI, BTCI, and DTNB were purchased from Sigma-Aldrich. To the experimental group in a 96-well plate, 10 μl AChE or BChE (final concentration is 0.04 U/ml), 25 μl tested compounds, and 65 μl PBS buffer was sequentially added. For the control group, all components were in accordance with those in the experimental group, except that 25 μl tested compounds were replaced by equal volume of PBS. For the blank group, only 100 μl PBS was added. […] The calculation formula is: inhibition rate% = (ODcontrol-ODtest)/(ODcontrol-ODblank)*100.

For assay [2], the target named is T2, eqBChE (BChE from equine serum) (Equus caballus, UniProt P81908).
T2 construct: BChE (E.C. 3.1.1.8, from equine serum); purchased Sigma-Aldrich; host or cells: equine serum
As to the kind of experiment: biochemical. The method, then:
as §1
3. Screen of the most appropriate incubation time for compounds and
In order to find the most appropriate incubation time for compounds and enzyme, to verify whether the incubation time of 25 min is appropriate, and to further improve […]
time, made the inhibition rate-incubation time curves (Figure S1), and calculated the IC50 values of these compounds under different incubation time (Table S1).

Assay [3] addresses T3, eqBChE (Equus caballus, UniProt P81908).
T3 construct: BChE (E.C. 3.1.1.8, from equine serum); purchased Sigma-Aldrich; host or cells: equine serum
As to the kind of experiment: Inhibition kinetics of butyrylcholinesterase (reversibility, Lineweaver-Burk, Ki replot). It is filed as biochemical. The source says:
According to the type of interaction between inhibitor and enzyme, there are three reaction types including the reversible, irreversible, and pseudo-irreversible reactions in the cholinesterase catalyzed reaction, and each type has its representative characteristics. By studying the reaction rate changes in enzymatic reactions in the presence of inhibitors, the mechanism of action of inhibitors on enzymes, viz the inhibition type could be determined, which is of great significance for further structural modification and the discovery of compounds with better enzyme inhibitory activity. To reveal the interaction between synthesized inhibitors and eq BChE, we initially chose compound 3p as an example and studied the reversibility of enzymatic reaction in the presence of inhibitor. When the final concentration of substrate BTCI was fixed at 0.2 mM, we deduced from Figure 2A that both compound 3p increased the enzymatic reaction rate to varying degrees with the increase of enzyme concentration. When both the concentrations of eq BChE and BTCI remained constant, the rate of the enzymatic reaction decreased with the increase of inhibitor concentration.
In the process of reversible inhibition reaction, inhibitors can be divided into competitive, non-competitive, mixed competitive, and anti-competitive inhibitors according to the effect of inhibitors and substrate on enzyme ([Liu et al., 2022]). […] For compound 3p, the Km values increased while the Vmax values decreased compared with those in the absence of inhibitors, which was not in accordance with the characteristics of competitive, non-competitive, and anti-competitive inhibitors. Therefore, non-competitive in combination with competitive inhibition and/or non-competitive in combination with anti-competitive inhibition maybe existed in the reaction systems of compound 3p with enzyme (Figure 2B). […] However, the binding affinity of compounds 3p with the free enzyme or the substrate-enzyme complex was different. […]

[4] abbreviates: incubation time 25 min, mean ± SD, at least three independent experiments, read-out: IC50 eqBChE.
[5] abbreviates: incubation time 5 min, read-out: IC50 eqBChE under different incubation time.
[6] abbreviates: incubation time 10 min, read-out: IC50 eqBChE under different incubation time.
Where [7] appears, read: incubation time 15 min, read-out: IC50 eqBChE under different incubation time.
[8] abbreviates: incubation time 45 min, read-out: IC50 eqBChE under different incubation time.
Where [9] appears, read: incubation time 65 min, read-out: IC50 eqBChE under different incubation time.
The mark [10] stands for this setting: incubation time 85 min, read-out: IC50 eqBChE under different incubation time.

The structures appear in SMILES notation. Like-named read-outs stand apart in the source and are kept apart here.

T1 sequence (O42275 24-633): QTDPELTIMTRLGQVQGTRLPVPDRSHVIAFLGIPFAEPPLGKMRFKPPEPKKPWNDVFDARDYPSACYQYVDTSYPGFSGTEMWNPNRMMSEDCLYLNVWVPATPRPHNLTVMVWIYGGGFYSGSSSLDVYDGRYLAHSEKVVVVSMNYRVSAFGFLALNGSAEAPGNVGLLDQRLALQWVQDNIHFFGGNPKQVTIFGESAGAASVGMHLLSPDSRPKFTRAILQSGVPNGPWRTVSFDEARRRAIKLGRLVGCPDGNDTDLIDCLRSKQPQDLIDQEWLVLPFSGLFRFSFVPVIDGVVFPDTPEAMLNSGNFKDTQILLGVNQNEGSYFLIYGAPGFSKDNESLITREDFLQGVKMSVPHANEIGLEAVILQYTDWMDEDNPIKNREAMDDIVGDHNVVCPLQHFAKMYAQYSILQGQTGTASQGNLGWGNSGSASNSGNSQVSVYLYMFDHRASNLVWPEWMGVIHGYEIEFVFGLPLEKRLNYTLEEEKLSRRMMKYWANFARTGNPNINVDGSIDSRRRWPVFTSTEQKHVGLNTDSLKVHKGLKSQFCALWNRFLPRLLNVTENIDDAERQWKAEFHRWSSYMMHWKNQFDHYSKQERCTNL
T3 sequence (P81908 whole entry): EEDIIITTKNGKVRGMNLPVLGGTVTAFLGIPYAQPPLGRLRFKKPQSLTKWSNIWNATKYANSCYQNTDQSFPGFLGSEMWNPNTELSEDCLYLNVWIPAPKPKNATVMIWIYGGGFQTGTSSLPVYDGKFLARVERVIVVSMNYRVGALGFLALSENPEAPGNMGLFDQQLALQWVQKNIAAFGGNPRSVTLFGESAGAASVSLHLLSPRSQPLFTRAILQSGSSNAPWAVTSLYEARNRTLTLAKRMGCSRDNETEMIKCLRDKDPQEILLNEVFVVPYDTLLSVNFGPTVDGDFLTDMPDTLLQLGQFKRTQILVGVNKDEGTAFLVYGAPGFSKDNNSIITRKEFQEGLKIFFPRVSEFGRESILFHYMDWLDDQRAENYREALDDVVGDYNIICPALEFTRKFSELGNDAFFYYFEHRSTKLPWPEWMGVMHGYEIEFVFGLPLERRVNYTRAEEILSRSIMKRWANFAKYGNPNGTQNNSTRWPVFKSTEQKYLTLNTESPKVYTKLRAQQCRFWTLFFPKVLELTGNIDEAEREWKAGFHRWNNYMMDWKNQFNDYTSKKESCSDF
T2 sequence (P81908 whole entry): as above

As to `Brc1cccc(-n2cccc2)c1` [Compound 3d], the half-inhibitory concentration (IC50) in assay [1] and in assay [2] (setting [4]) was > 50 µM throughout.

Consider `Cc1cccc(C)c1-n1cccc1` [Compound 3i], for which the IC50 in assay [1] and in assay [2] (setting [4]) was > 50 µM each time.

Take `Cc1ccccc1-n1cccc1` [Compound 3a]: the IC50 in assay [1] and in assay [2] (setting [4]) was > 50 µM in each case.

For the compound `Brc1ccc(-n2cccc2)cc1` [Compound 3g], the IC50 in assay [1] and in assay [2] (setting [4]) was > 50 µM in each case.

For the compound `c1ccc(-c2ccn(-c3ccccc3)c2)cc1` [Compound 3n], the half-inhibitory concentration (IC50) in assay [1] and in assay [2] (setting [4]) was > 50 µM in each case.

`c1ccc2nc(-n3cccc3)cnc2c1` [Compound 3l]: the half-inhibitory concentration (IC50) in assay [1] and in assay [2] (setting [4]) was > 50 µM each time.

On to `COc1ccccc1-c1ccn(-c2ccccc2)c1` [Compound 3o], for which the IC50 (commonly the midpoint of a concentration-inhibition curve) is > 50 µM in assay [1]; 4.8 ± 0.38 µM in assay [2] (setting [5]); 5.06 ± 1.2 µM in assay [2] (setting [6]); 6.87 ± 0.6 µM in assay [2] (setting [7]); 5.37 ± 0.36 µM in assay [2] (setting [4]); 6.67 ± 0.61 µM in assay [2] (setting [8]). The 50% inhibitory concentration (IC50) in assay [2] (setting [9]) turned out to be 6.83 ± 0.24 µM; in assay [2] (setting [10]) it was 7.63 ± 0.77 µM.

Turning to `Cc1cccc(-n2cccc2)c1` [Compound 3c], the IC50 in assay [1] and in assay [2] (setting [4]) was > 50 µM in each case.

As to `CSc1ccc(-n2cccc2)cc1` [Compound 3f], the IC50 in assay [1] and in assay [2] (setting [4]) was > 50 µM each time.

With `COC(=O)c1ccc(-n2cccc2)cc1` [Compound 3h], the IC50 in assay [1] and in assay [2] (setting [4]) was > 50 µM throughout.

As to `CC(C)c1ccc(-n2cccc2)cc1` [Compound 3e], the IC50 in assay [1] and in assay [2] (setting [4]) was > 50 µM in each case.

`COc1cccc(-c2ccn(-c3ccccc3)c2)c1` [Compound 3q]: the IC50 in assay [1] and in assay [2] (setting [4]) was > 50 µM each time.

`FC(F)(F)c1cccc(-c2ccn(-c3ccccc3)c2)c1` [Compound 3r]: the IC50 in assay [1] and in assay [2] (setting [4]) was > 50 µM in each case.

Regarding `c1ccc(-n2cccc2)nc1` [Compound 3j], the IC50 in assay [1] and in assay [2] (setting [4]) was > 50 µM in each case.

Take `c1ccc(Cc2ccn(-c3ccccc3)c2)cc1` [Compound 3m]: the IC50 in assay [1] and in assay [2] (setting [4]) was > 50 µM throughout.

As for `Cc1cc(-n2cccc2)no1` [Compound 3k], the IC50 in assay [1] and in assay [2] (setting [4]) was > 50 µM each time.

Take `Clc1ccccc1-c1ccn(-c2ccccc2)c1` [Compound 3p]: the Inhibition mode result in assay [3] (Lineweaver-Burk plots) is “mixed competitive inhibition”. Moreover, in assay [3] (rate vs. enzyme concentration, BTCI 0.2 mM), the Reversibility of inhibition result is listed as “reversible”. Moreover, in assay [3] (replot of Lineweaver-Burk slopes vs. inhibitor concentration), the Ki (commonly the equilibrium dissociation constant of an inhibitor or competing ligand from its target) worked out at 0.281 µM. The IC50 in assay [1] was > 50 µM; in assay [2] (setting [5]) it was 0.6 ± 0.1 µM; in assay [2] (setting [6]), 0.48 ± 0.24 µM; in assay [2] (setting [7]), 1.95 ± 0.13 µM; in assay [2] (setting [4]) it was 1.71 ± 0.087 µM; in assay [2] (setting [8]) it was 2.4 ± 0.11 µM. For the same compound, the IC50 worked out at 3.27 ± 0.49 µM in assay [2] (setting [9]) and 3.2 ± 0.092 µM in assay [2] (setting [10]).

For the compound `c1ccc(-c2ccc(-c3ccn(-c4ccccc4)c3)cc2)cc1` [Compound 3s], the IC50 in assay [1] was > 50 µM; in assay [2] (setting [5]), 5.87 ± 0.23 µM; in assay [2] (setting [6]), 5.95 ± 0.3 µM; in assay [2] (setting [7]) it was 6.05 ± 0.65 µM; in assay [2] (setting [4]), 3.76 ± 0.25 µM; in assay [2] (setting [8]), 4.41 ± 0.15 µM. For the same compound, the IC50 in assay [2] (setting [9]) was 4.21 ± 0.075 µM; in assay [2] (setting [10]) it was 4.38 ± 0.18 µM.

Take `Clc1ccccc1-n1cccc1` [Compound 3b]: the IC50 in assay [1] and in assay [2] (setting [4]) was > 50 µM throughout.

The values above are taken from paper PMC9763612, “Discovery of pyrrole derivatives as acetylcholinesterase-sparing butyrylcholinesterase inhibitor” (Frontiers in Pharmacology, 2022).
